{
  "source": "patent US10344266B2",
  "about": "“Cell mass capable of serving as a primitive organ-like structure comprised of a plurality of cell types of somatic origin” (priority 2006, dated 2019)",
  "format_in_all_cases": "cell-based, human",
  "key": {"[1]": {"system": "cell mass of hair papilla cells and epidermal keratinocytes", "experiment": "Immunohistofluorescent staining of hanging-drop cell mass (hair papilla cells and keratinocytes)", "procedure": "30% Advanced DMEM (Invitrogen), 2 mM L-glutamine, a mixture of penicillin and streptomycin (Invitrogen, 100-fold dilution) and 3.5 μl/50 ml of β-mercaptoethanol were mixed with Humedia KG-2 (Kurabo) at a ratio of 1:1.\n(§1) In the case of adding BIO (Calbiochem), the BIO was dissolved to 10 mM with dimethylsulfoxide (DMSO) and added to a concentration of 0.1 to 5 μM.\n(§2) Hair papilla cells were prepared to P3 or more (with P1 indicating one round of subculturing) in the presence or absence of BIO loading, while keratinocytes were prepared up to and including P3.\n(§3) Each of the cells was diluted with each medium following trypsin treatment so as to obtain 1×10^5 cells.\n(§4) 25 to 35 μl of each culture medium was dispensed onto the inside of the upper lid of a square culture dish measuring 10 cm on a side and mixed to prepare dome-shaped droplets of a suitable size.\n(§5) Three days later, the medium was replaced with the same medium as that used above. […]\nIn the color version of this diagram, green coloring by vimentin antibody and red coloring by CD49f antibody can be distinguished, and each were able to be determined to be hair papilla cells and keratinocytes, respectively. […] After the cell masses formed following the addition of BIO, red-staining keratinocytes were determined to be growing in a regular manner in the form of branches within cell masses cultured in the absence of BIO. […]"}, "[2]": {"system": "cell masses prepared with hair papilla cells and outer root sheath cells", "experiment": "Immunohistofluorescent staining of cell mass prepared with hair papilla cells and outer root sheath cells", "procedure": "Each of the cell masses obtained with the hanging drop method were fixed for 5 minutes with 0.1% paraformaldehyde and submitted for staining. In addition, a portion of the cell masses were embedded in OCT solution without fixing and prepared into frozen sections with a cryostat followed by immunohistostaining.\nBlocking was carried out for 6 hours with PBS(−) containing 13% bovine serum albumin (BSA).\nEach of the primary antibodies indicated in the following table were diluted by 1/200 with the aforementioned PBS(−) containing 13% bovine serum albumin (BSA), added to each sample and allowed to react for 4 hours at 4° C.\nThe cells were washed three times with PBS(−) containing 0.02% Tween 20.\nFluorescent secondary antibody (see Excel file) diluted by 1/200 with the aforementioned PBS(−) containing 13% bovine serum albumin (BSA) was added to each sample. In addition, the nuclei of the cells were stained blue with DAPI (4′-6-diamidino-2-phenylindole).\nAntibody to cytokeratin 14 (K14) expressed in epidermal keratinocytes and outer root sheath cells is used for the purpose of confirming that these cells have not differentiated to hair roots (red). Since AE13 monoclonal antibody, which specifically reacts to hair keratin (Lynch et al., J. Cell Biol., 103, 2593, 1986), recognizes 44K/46K acidic hair keratin dimer, it is used to mark differentiation into hair roots (green). […]"}, "[3]": {"system": "Lef-1", "experiment": "RT-PCR analysis (1) of cell mass, Lef-1", "conditions": "in the presence of BIO (also detected in its absence), FIG. 7", "procedure": "as §2, §3, §1, §4\n(§6) Three days later, the medium was replaced with the same medium as that used above.\n(§7) After culturing for an additional four days, a portion of the medium was subjected to RT-PCR analysis (1) as described below. All of the remaining media was replaced with medium under conditions of the absence of BIO.\n(§8) RNA was extracted from each sample using Trizol (Invitrogen). An equivalent of 200 ng of each RNA was reverse transcribed to cDNA with a reaction system consisting of 50 μl of RevTraACE (Toyobo). 1 μl of the resulting samples was applied to a PCR reaction in a 50 μl system using the primers listed below. […]"}, "[4]": {"system": "SHH (Sonic Hedge Hog)", "experiment": "RT-PCR analysis (1) of cell mass, SHH", "conditions": "in the presence of BIO (same in its absence), FIG. 7", "procedure": "as §2, §3, §1, §4, §6, §7, §8"}, "[5]": {"system": "STAT-3", "experiment": "RT-PCR analysis (1) of cell mass, STAT-3", "conditions": "presence of BIO compared with absence, FIG. 7", "procedure": "as §2, §3, §1, §4, §6, §7, §8"}, "[6]": {"system": "TWIST-1", "experiment": "RT-PCR analysis (1) of cell mass, TWIST-1", "conditions": "in the presence of BIO, ascribed to relative decrease of hair papilla cells, FIG. 7", "procedure": "as §2, §3, §1, §4, §6, §7, §8"}, "[7]": {"system": "Versican gene", "experiment": "RT-PCR analysis (1) of cell mass, Versican", "conditions": "in the presence of BIO, ascribed to relative decrease of hair papilla cells, FIG. 7", "procedure": "as §2, §3, §1, §4, §6, §7, §8"}, "[8]": {"system": "Wnt3A", "experiment": "Wnt3A RT-PCR, RT-PCR analysis (2) of cell mass", "conditions": "FIG. 8", "procedure": "Hair papilla cells were prepared to P3 (with P1 indicating one round of subculturing) in the presence of BIO loading, while keratinocytes were prepared up to and including P3.\n(§9) Each of the cells was diluted with each medium following trypsin treatment so as to obtain 3×10^3 cells.\n(§10) BIO (Calbiochem) was dissolved to 10 mM with dimethylsulfoxide (DMSO) and added to a concentration of 0.1 to 5 μM.\nas §4\nThree days later, the medium was replaced with the same medium as that used above. The samples were collected on the 7th day and submitted for RT-PCR analysis (2) as described below (“0 day” in FIG. 8). The medium used for the same remaining cells was replaced with medium under conditions of the absence of BIO to induce differentiation, after which the samples collected on the 3rd day were submitted for RT-PCR analysis (2) as described below (“3 days” in FIG. 8).\nRNA was extracted from the samples using Trizol (Invitrogen). […]\n10 μl of the reaction solution was electrophoresed at 100 V in 2% agarose gel (Cosmobio)/TAE buffer. Target bands were detected after visualizing with ethidium bromide."}, "[9]": {"system": "Wnt10B", "experiment": "Wnt10B RT-PCR, RT-PCR analysis (3), quantitative PCR of cell mass", "conditions": "FIG. 9", "procedure": "Hair papilla cells were prepared to P3 (with P1 indicating one round of subculturing) in the absence of BIO loading, while outer root sheath cells were prepared up to and including P3.\nas §9, §10, §4, §5\nRNA was extracted from the samples using Trizol (Invitrogen). […] 4 μl of the resulting samples were applied to a quantitative PCR system (LightCycler System, Roche) in a 20 μl system using the primers listed below. […]\nAll data was expressed as the relative expressed amount based on the expressed amount after 3 days in the case of not loading the cell mass with BIO. […] Accordingly, in this experimental system, differentiation of follicular epithelial cells (outer root sheath cells), and what is more, autonomous organogenesis were clearly determined to be induced by culturing in the presence of BIO followed by culturing after removing BIO."}},
  "data": [
    {"smiles": "O=C1Nc2cc(Br)ccc2/C1=C1/Nc2ccccc2/C1=N\\O", "note": "[BIO, (2′Z,3′E)-6-bromoindirubin-3′-oxime]", "values": [
      {"measurement": "staining for the proliferation marker, K167, in the cell mass", "setting": "[1]; cell mass formed by adding BIO 0.1 to 5 μM, central portion and branch-like end portion, FIG. 3", "value": "positive"},
      {"measurement": "staining by AE13 antibody (hair keratin)", "setting": "[1]; hair papilla cells and epidermal keratinocytes, stimulated with BIO, no staining without BIO, FIG. 5", "value": "staining is observed in some cell masses"},
      {"measurement": "immunostaining by Ber-EP4 antibody (hair buds)", "setting": "[2]; hair papilla cells and outer root sheath cells stimulated with BIO, FIG. 6", "value": "clearly observed"},
      {"measurement": "staining by AE13 antibody (hair keratin)", "setting": "[2]; hair papilla cells and outer root sheath cells, BIO stimulation versus absence of BIO, FIG. 5", "value": "considerably enhanced"},
      {"measurement": "expression of Lef-1 gene", "setting": "[3]", "value": "detected"},
      {"measurement": "expression of SHH gene", "setting": "[4]", "value": "not detected"},
      {"measurement": "expression of STAT-3 gene", "setting": "[5]", "value": "detected prominently"},
      {"measurement": "expression of TWIST-1 gene", "setting": "[6]", "value": "expression appearing to decrease"},
      {"measurement": "expression of Versican gene", "setting": "[7]", "value": "expression appearing to decrease"},
      {"measurement": "expression of Wnt3A", "setting": "[8]; 3rd day after removal of BIO (\"3 days\")", "value": "expression of Wnt3A was observed"},
      {"measurement": "expression of Wnt3A", "setting": "[8]; cultured in the presence of BIO, 7th day (\"0 day\")", "value": "not being observed at all"},
      {"measurement": "expression of Wnt10B, relative expressed amount", "setting": "[9]; after removing BIO (day 10 and day 14)", "value": "increased over time"},
      {"measurement": "expression of Wnt10B, relative expressed amount", "setting": "[9]; cultured in the presence of BIO (day 7), versus control cultured in the absence of BIO", "value": "about the same level as that of a control"}
    ]}
  ]
}
